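Cells were grown in 96-well plates and exposed to each compound for 48 hours at five concentrations; endpoints were interpolated linearly between bracketing concentrations, or set to the highest concentration if not reached. The concentration for 50% growth inhibition is given as GI50.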 Active and inactive are the calls of the source. Rule as the data show it: active = GI50 up to about 1.1 µM and inactive = higher. Where a SMILES comes first, the peptide text is derived from it. [ ]: non-standard residue; d: D form. The star is where a group is joined. Phe(4-NO2) = N[CH](Cc1ccc([N+](=O)[O-])cc1)C(=O)O; Boc = CC(C)(C)OC(=O)*; OtBu = CC(C)(C)O* Some results are limits rather than exact numbers.

The values below come from ChEMBL document CHEMBL1201862, “PubChem BioAssay data set” (2004).

Some test systems named below: 786-0; A498; CCRF-CEM; HCC 2998; HCT-116; HL-60; K562; MDA-N; MOLT-4; NCI-H226; OVCAR-3; OVCAR-4; RPMI-8226; RXF 393; SF-295; SK-OV-3; SNB-19; SW-620; UACC-62; UO-31.
Common to all, as to assay: NCI tumour cell line growth inhibition, 48 h

For `C[N+]1(CCC[N+]2(C)CC3C4C=CC(CC4)C3C2)CCOCC1` (stereo not given), the GI50 with 786-0 was > 100 µM (inactive); in the assay with A498, > 100 µM (inactive); in the assay on CCRF-CEM, > 100 µM (inactive); with HCC 2998, 86.7 µM (inactive); with HCT-116 it was > 100 µM (inactive); in the assay on HL-60, > 100 µM (inactive). The GI50 in the assay with K562, in the assay with MDA-N, in the assay on MOLT-4, in the assay with NCI-H226, with OVCAR-3 and with OVCAR-4 was > 100 µM (inactive) throughout. The GI50 in the assay on RPMI-8226, in the assay with RXF 393, in the assay with SF-295, in the assay on SK-OV-3, in the assay on SNB-19 and with SW-620 was > 100 µM (inactive) in each case. Further, the GI50 in the assay with UACC-62 and with UO-31 was > 100 µM (inactive) each time.

Take `CCCCCCCCCCCCCC(=O)O[C@H]1CC[C@H](NC(=O)[C@H](OC)[C@H](O)[C@@H](O)[C@H](O)/C=C/C(C)C)C(=O)NC1` [BENGAMIDE A]: the GI50 in the assay with 786-0 was 0.00512 µM (active); in the assay on A498 it was 0.0389 µM (active); in the assay with CCRF-CEM, 0.00512 µM (active); with HCC 2998 it was 0.117 µM (active); in the assay with HCT-116, 0.00512 µM (active); in the assay with HL-60, 0.00512 µM (active). Also, the GI50 in the assay on K562 was 0.00512 µM (active); in the assay on MDA-N, 0.0598 µM (active); in the assay with MOLT-4 it was 0.00512 µM (active); in the assay with NCI-H226, 0.145 µM (active); in the assay on OVCAR-3, 0.0147 µM (active); with OVCAR-4, 0.0255 µM (active). For the same compound, the GI50 with RPMI-8226 was 0.00634 µM (active); with RXF 393, 0.175 µM (active); in the assay on SF-295, 0.0927 µM (active); in the assay with SK-OV-3, 0.149 µM (active); in the assay on SNB-19, 0.0115 µM (active); in the assay on SW-620, 0.00512 µM (active). Moreover, the GI50 with UACC-62 is 0.00512 µM (active); with UO-31, 0.106 µM (active).

Take `COc1ccc(/C=N/N=C(\N)NO)c(O)c1`: the GI50 in the assay on 786-0 is > 10 µM (inactive); in the assay with A498, 8.77 µM (inactive); with CCRF-CEM it was > 10 µM (inactive); in the assay on HCC 2998, > 10 µM (inactive); in the assay on HCT-116, 3.53 µM (inactive); in the assay on HL-60, 4.39 µM (inactive). The GI50 was 4.41 µM (inactive) with K562; > 10 µM (inactive) with MDA-N; > 10 µM (inactive) with MOLT-4; 3.98 µM (inactive) with NCI-H226; 5.51 µM (inactive) in the assay with OVCAR-3; > 10 µM (inactive) in the assay on OVCAR-4. The GI50 in the assay with RPMI-8226 was > 10 µM (inactive); in the assay with RXF 393, > 10 µM (inactive); in the assay on SF-295, > 10 µM (inactive); in the assay on SK-OV-3, 7.38 µM (inactive); in the assay with SNB-19 it was > 10 µM (inactive); in the assay with SW-620, > 10 µM (inactive). For the same compound, the figures for the GI50 with UACC-62 and in the assay on UO-31 were 4.53 µM (inactive) and > 10 µM (inactive), respectively.

On to `C=CC(=O)N1C/C(=C\c2ccccc2)C(=O)/C(=C/c2ccccc2)C1`, for which the GI50 with 786-0 is 1.06 µM (active); with A498, 2 µM (inactive); in the assay on CCRF-CEM, 0.351 µM (active); with HCC 2998, 1.95 µM (inactive); in the assay with HCT-116, 0.195 µM (active); in the assay on HL-60, 0.71 µM (active). Besides, the GI50 in the assay on K562 is 0.265 µM (active); in the assay on MDA-N, 0.318 µM (active); in the assay on MOLT-4, 0.458 µM (active); in the assay with NCI-H226, 3.85 µM (inactive); with OVCAR-3, 1.48 µM (inactive); with OVCAR-4 it was 2.16 µM (inactive). Moreover, the GI50 in the assay with RPMI-8226 was 0.0462 µM (active); in the assay on RXF 393 it was 2.15 µM (inactive); with SF-295, 2.1 µM (inactive); with SK-OV-3, 2.58 µM (inactive); in the assay on SNB-19, 2.54 µM (inactive); in the assay with SW-620, 0.259 µM (active). Also, the GI50 in the assay on UACC-62 was 1.19 µM (inactive); in the assay on UO-31, 1.77 µM (inactive).

With `CC(C)/C(Cl)=N/OC(=O)Nc1ccc(Br)cc1`, the GI50 is 1.88 µM (inactive) with 786-0; 18.4 µM (inactive) in the assay with A498; 1.36 µM (inactive) in the assay with CCRF-CEM; 15.5 µM (inactive) in the assay with HCC 2998; 2.9 µM (inactive) with HCT-116; 2.58 µM (inactive) with HL-60. In addition, the GI50 with K562 is 1.23 µM (inactive); in the assay with MDA-N, 4.83 µM (inactive); in the assay with MOLT-4, 2.39 µM (inactive); in the assay on NCI-H226, 16.7 µM (inactive); with OVCAR-3, 4.89 µM (inactive); in the assay on OVCAR-4, 12.7 µM (inactive). The GI50 in the assay on RPMI-8226 is 1.75 µM (inactive); in the assay with RXF 393, 10.2 µM (inactive); in the assay with SF-295 it was 15.2 µM (inactive); in the assay with SK-OV-3, 16.7 µM (inactive); in the assay on SNB-19 it was 20.8 µM (inactive); in the assay with SW-620, 2.2 µM (inactive). For the same compound, the values for the GI50 with UACC-62 and with UO-31 were 3.82 µM (inactive) and 11.6 µM (inactive), respectively.

Regarding `CCCCCCCCCCCCCC(=O)NO`, the GI50 with 786-0 is 7.1 µM (inactive); in the assay on A498, 23.5 µM (inactive); in the assay with CCRF-CEM, 0.158 µM (active); in the assay on HCC 2998, 14.4 µM (inactive); in the assay with HCT-116 it was 8.85 µM (inactive); with HL-60, 1.17 µM (inactive). For the same compound, the GI50 in the assay with K562 was 3.03 µM (inactive); in the assay on MDA-N, 25.7 µM (inactive); with MOLT-4 it was 0.492 µM (active); in the assay with NCI-H226 it was 5.05 µM (inactive); with OVCAR-3, 10.1 µM (inactive); with OVCAR-4 it was 6.79 µM (inactive). Moreover, the GI50 is 5 µM (inactive) in the assay with RPMI-8226; 5.75 µM (inactive) in the assay on RXF 393; 21.4 µM (inactive) in the assay on SF-295; 30.5 µM (inactive) with SK-OV-3; 23.9 µM (inactive) in the assay on SNB-19; 16.3 µM (inactive) in the assay on SW-620. The GI50 was 6.68 µM (inactive) in the assay with UACC-62 and 6.38 µM (inactive) in the assay with UO-31.

In the case of `CCN(CC)CCCNc1nncc2cc3c([nH]c4ccc(OC)cc43)c(C)c12`, the GI50 in the assay with 786-0 was 4.13 µM (inactive); in the assay on A498, 16.4 µM (inactive); with CCRF-CEM, 2.93 µM (inactive); with HCC 2998, 6.1 µM (inactive); in the assay with HCT-116, 3.38 µM (inactive); in the assay on HL-60, < 0.01 µM (active). The GI50 was 3.34 µM (inactive) in the assay on K562; 10.4 µM (inactive) in the assay on MDA-N; 2.3 µM (inactive) in the assay on MOLT-4; 7.41 µM (inactive) with NCI-H226; 7.05 µM (inactive) in the assay on OVCAR-3; 3.27 µM (inactive) in the assay with OVCAR-4. Moreover, the GI50 is 6.84 µM (inactive) in the assay on RPMI-8226; 5.81 µM (inactive) in the assay on RXF 393; 12.6 µM (inactive) in the assay on SF-295; 9.64 µM (inactive) in the assay on SK-OV-3; 5.97 µM (inactive) in the assay on SNB-19; 4.61 µM (inactive) in the assay with SW-620. Further, the GI50 with UACC-62 is 17.4 µM (inactive); in the assay with UO-31, 11.5 µM (inactive).

In the case of `COC(=O)C(Cc1ccc([N+](=O)[O-])cc1)NC(=O)C(CC(=O)OC(C)(C)C)NC(=O)OC(C)(C)C` (stereo not given) (Boc-Asp(OtBu)-[Phe(4-NO2)]-OMe; configuration not given here), the GI50 in the assay on 786-0 is > 100 µM (inactive); with A498 it was > 100 µM (inactive); in the assay on CCRF-CEM, > 100 µM (inactive); in the assay with HCC 2998, 35.2 µM (inactive); in the assay on HCT-116, > 100 µM (inactive); with HL-60, > 100 µM (inactive). Also, the GI50 with K562 is > 100 µM (inactive); in the assay on MDA-N, > 100 µM (inactive); with MOLT-4, 66.8 µM (inactive); with NCI-H226, > 100 µM (inactive); in the assay on OVCAR-3 it was > 100 µM (inactive); in the assay with OVCAR-4 it was 38.4 µM (inactive). Moreover, the GI50 is 40 µM (inactive) with RPMI-8226; > 100 µM (inactive) with RXF 393; > 100 µM (inactive) in the assay on SF-295; > 100 µM (inactive) in the assay on SK-OV-3; > 100 µM (inactive) in the assay on SNB-19; > 100 µM (inactive) in the assay with SW-620. For the same compound, the values for the GI50 in the assay on UACC-62 and in the assay on UO-31 were > 100 µM (inactive) and 14.3 µM (inactive), respectively.

Regarding `CC1=NN(c2nc(N)nc(CBr)n2)C(C)(C)C1`, the GI50 with 786-0 is 0.692 µM (active); in the assay on A498 it was 12.9 µM (inactive); with CCRF-CEM it was 0.229 µM (active); with HCC 2998, 16.1 µM (inactive); in the assay with HCT-116 it was 6.27 µM (inactive); in the assay on HL-60 it was 0.975 µM (active). Further, the GI50 in the assay with K562 is 2.02 µM (inactive); in the assay on MDA-N, 11.5 µM (inactive); in the assay with MOLT-4, 1.61 µM (inactive); in the assay with NCI-H226, 2.61 µM (inactive); in the assay on OVCAR-3 it was 3.42 µM (inactive); in the assay with OVCAR-4, 7.4 µM (inactive). Moreover, the GI50 with RPMI-8226 is 1.13 µM (inactive); in the assay on RXF 393, 2.78 µM (inactive); with SF-295 it was 12.1 µM (inactive); in the assay on SK-OV-3, 17.3 µM (inactive); in the assay on SNB-19, 16.7 µM (inactive); with SW-620, 4.19 µM (inactive). Also, the results for the GI50 in the assay on UACC-62 and with UO-31 were 7.28 µM (inactive) and 0.384 µM (active), respectively.
